Measurements: patent publication US20250204530A1, “USE OF CAROTENIOD COMPOSITION FOR NEMATODE CONTROL” (IDAI NATURE, S.L., priority 2022, published 2025)

Test system: Phytopathogenic nematodes (Helicotylenchus and Hemicycliophora)
Experiment: NEPOT test in soil pots: full formulation, co-formulants, lutein alone (Example 14)
Format: in vivo
Conditions: 20 mL/pot, 7 DAA; for number of nematodes in soil (living individuals, Baermann): 320 individuals per pot
Source text: The purpose of this test was to evaluate the efficacy of the products coded as P1, P2 and P3 of the company IDAI NATURE against a mixture of phytopathogenic nematodes by the company NEVAL.
This study evaluates the behaviour under controlled conditions, in soil (NEPOT test)* of a battery of products against a mixture of phytopathogenic nematodes.
This study consists of 3 compositions, each of them at 2 doses and a control without treatment.
The juveniles were obtained from a freshly extracted sample of roots of sports lawns.
It is based on pots or glasses with the right amount of 100 mL for a quantification per sample.
• Product 1: N-09-04—Full formulation • Product 2: Co-formulant package (without A.I.)—(sunflower oil+tensioactives polysorbates 20, 80 and 85+butyl glycol+TBHQ+water) • Product 3: The Active ingredient alone—Lutein
The trial was carried out laboratory in Xilxes—Castelon—Spain—under controlled conditions and plant pathogenic nematodes in soil in a volume of 100 mL per pot. The three replicates per treatment were worked in 100 mL pots of soil with 320 plant pathogenic nematodes in each pot. • Pest: Phytopathogenic nematodes (Helicotylenchus and Hemicycliophora) • Innoculum quantity: 320 individuals per experimental unit • Substract: Sandy soil • Application: Manual—20 mL/pot • Design: Randomized Complete Block (RCB)—3 replicates per treatment • Equipment: Manual application: with micropipette and MAT 09.1 balance • Application code: A=28/06/2021—preparation+application A • Extraction=05/07/2021 (7 DAA according Baermann) • Quantification=06/07/2021
Products 1 (N-09-04 full formulation) and product 2 (the full formulation without the Lutein) were mixed with water, while product 3 (Lutein alone—active ingredient), difficult miscibility was deposited on the ground, adding the water later and mixing everything in the soil with a teaspoon shaking for 30 seconds each replica.
After the study carried out under laboratory conditions, each of the soil samples was extracted using the Baermann funnel procedure for 24 hours and then quantified under a biological microscope.
The Baermann procedure has the particular option of extracting only those individuals that have mobility, that is, that are alive, so the result is extrapolated to living individuals.

In the case of `CC1=C[C@H](O)CC(C)(C)[C@H]1/C=C/C(C)=C/C=C/C(C)=C/C=C/C=C(C)/C=C/C=C(C)/C=C/C1=C(C)C[C@@H](O)CC1(C)C` [Product 3, Lutein], the “efficacy / control (in brackets)” value (0.375 mL/L) is reported as 78.4%, the “number of nematodes in soil (living individuals, Baermann)” value (0.375 mL/L) is reported as 68.0 and the “efficacy / control (in brackets)” value (0.563 ml/L) is reported as 77.5%. For the same compound, the “number of nematodes in soil (living individuals, Baermann)” value (0.563 ml/L) was 71.0, the “efficacy / control (in brackets)” value (5 ml/L) was 4.2% and the “efficacy / control (in brackets)” value (7.5 ml/L) was 40.8%.
